Publication PMC4411898, “Impact of kinesin Eg5 inhibition by 3,4-dihydropyrimidin-2(1H)-one derivatives on various breast cancer cell features” (BMC Cancer, 2015)
pIC50: −log10 of the molar value.

Assays:
[1] = system: MDA-MB-231 cells; assay: CD44+/CD24- expression analysis, MDA-MB-231; type: cell-based, human; conditions: 24 h; for CD44-/CD24- subpopulation, MDA-MB-231 (mean ± SEM): 4m 1.0 mM, 4bt 0.8 mM, 4p 0.4 mM, 4bc 1.0 mM, 4x 0.8 mM, monastrol 1.0 mM; for CD44-/CD24+ subpopulation, MDA-MB-231 (mean ± SEM) / CD44+/CD24+ subpopulation, MDA-MB-231 (mean ± SEM) / CD44+/CD24- subpopulation, MDA-MB-231 (mean ± SEM): concentrations as E32; for CD44+/CD24+ subpopulation, MDA-MB-231 (mean ± SEM): control 1.507 ± 0.47; for CD44+/CD24- subpopulation, MDA-MB-231 (mean ± SEM): untreated control 98.45 ± 0.47
Procedure: For proliferation assays, cells were treated with IC50 concentrations of each compound. Adherent and floating cells were harvested at the same tube and pelleted by centrifugation at 300 g for 5 minutes and stained. Data acquisition of these two fractions put together was performed on a FACSCalibur flow cytometer using CellQuest software and analysed using the FloJo Software. Expression level of CD44 and CD24 in treated and control MCF-7 or MDA-MB-231 cells was measured after 24 h of treatment.

[2] = system: MCF-7 cells; assay: α-tubulin immunostaining, spindle formation; type: cell-based, human; conditions: for Monoastral Spindle (%) 24 h / Bipolar Spindle (%) 24 h / Mitotic spindle / microtubule organization (α-tubulin immunostaining): MCF-7, 24 h; for Monoastral Spindle (%) 24 h / Bipolar Spindle (%) 24 h / Bipolar Spindle (%) 48 h / Monoastral Spindle (%) 48 h: n = 300 dividing cells; for Monoastral Spindle (%) 24 h / Mitotic spindle / microtubule organization (α-tubulin immunostaining): 4m 1.0 mM, 4bt 0.8 mM, 4p 0.4 mM, 4bc 1.0 mM, 4x 0.8 mM; for Monoastral Spindle (%) 24 h: monastrol 0.1 mM; for Bipolar Spindle (%) 24 h / Bipolar Spindle (%) 48 h / Monoastral Spindle (%) 48 h: concentrations as E14; for Bipolar Spindle (%) 48 h / Monoastral Spindle (%) 48 h: MCF-7, 48 h
Procedure: Aliquots of 7 × 10^4 MCF-7 cells were seeded onto 12 mm round glass coverslips placed in the base of each well of a 24-well plate. After adhesion, cells were treated for 24 and 48 h with the pre-selected compounds at their maximum non-cytotoxic concentrations to normal cells or incubated with culture medium only for the same duration (negative control). Cells were washed with PBS, fixed with 3.7% formaldehyde, permeabilized with 0.1% Triton X-100 and blocked in PBS supplemented with 1% skimmed milk, 2.5% bovine serum albumin (BSA) and 8% fetal bovine serum (FBS) at room temperature. Cells were incubated overnight with mouse anti-α-tubulin antibody (1:500) at 4°C, followed by incubation with a secondary antibody: Alexa Fluor 488 rabbit anti-mouse IgG (1:400), for 1 hour at 37°C. Nuclei were stained with 300 nM DAPI. The coverslips were mounted with ProLong Gold Antifade and specimens observed under a laser scanning confocal microscope.
Table S1. Quantification of monopolar spindles occurred as a result of treatment with DHPM derivatives. MCF-7 control cells or cells treated for 24 or 48 h with 4m (1 mM), […]
antibody. The percentage of dividing cells showing presence of monoastral and bipolar spinles formation determined (n = 300).
Experimental Group Monoastral Spindle (%) Bipolar Spindle (%)

[3] = molecular target: T1, Kinesin Eg5 (Homo sapiens, UniProt P52732); assay: Kinesin inhibition assay (Kinesin ELIPA); type: biochemical; conditions: compound at its IC50, 30 min, 360 nm
T1 sequence (P52732 1-1056): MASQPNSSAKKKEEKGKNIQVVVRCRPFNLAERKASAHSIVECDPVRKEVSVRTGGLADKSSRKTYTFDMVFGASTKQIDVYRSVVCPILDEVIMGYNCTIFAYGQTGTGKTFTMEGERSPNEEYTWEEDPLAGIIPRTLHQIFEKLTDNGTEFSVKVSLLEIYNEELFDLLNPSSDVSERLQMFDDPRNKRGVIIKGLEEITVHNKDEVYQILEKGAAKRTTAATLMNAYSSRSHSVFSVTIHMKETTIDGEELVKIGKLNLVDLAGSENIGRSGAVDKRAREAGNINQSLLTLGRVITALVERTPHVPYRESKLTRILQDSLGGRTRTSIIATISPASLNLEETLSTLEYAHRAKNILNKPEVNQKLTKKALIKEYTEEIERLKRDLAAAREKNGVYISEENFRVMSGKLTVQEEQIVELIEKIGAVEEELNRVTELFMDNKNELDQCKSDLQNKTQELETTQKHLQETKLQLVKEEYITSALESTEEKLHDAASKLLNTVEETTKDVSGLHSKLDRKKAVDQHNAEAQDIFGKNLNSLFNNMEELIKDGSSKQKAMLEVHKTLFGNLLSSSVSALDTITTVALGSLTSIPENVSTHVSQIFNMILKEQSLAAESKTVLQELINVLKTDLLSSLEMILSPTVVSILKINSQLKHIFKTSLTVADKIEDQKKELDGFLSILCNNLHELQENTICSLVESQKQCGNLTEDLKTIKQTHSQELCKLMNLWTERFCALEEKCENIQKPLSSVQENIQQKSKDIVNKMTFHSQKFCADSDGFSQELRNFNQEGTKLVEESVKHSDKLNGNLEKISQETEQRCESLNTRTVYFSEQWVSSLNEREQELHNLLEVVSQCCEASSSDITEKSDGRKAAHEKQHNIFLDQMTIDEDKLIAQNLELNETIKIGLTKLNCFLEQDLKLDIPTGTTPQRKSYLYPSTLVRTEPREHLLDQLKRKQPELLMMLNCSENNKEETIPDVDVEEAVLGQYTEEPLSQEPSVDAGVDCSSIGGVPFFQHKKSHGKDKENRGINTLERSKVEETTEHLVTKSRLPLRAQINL
Procedure: Kinesin inhibition assays were performed using Kinesin ELIPA (Enzyme Linked Inorganic Phosphate Assay). Reactions were conducted in 96-well plates according to the manufacturer’s recommendations (Kinesin ELIPA Biochem Kit – BK060).
Reactions were measured in spectrophotometer set in kinetic mode and an absorbance wavelength of 360 nm.

[4] = system: MCF-7 cells; assay: Apoptosis and necrosis assay (Annexin-V/PI flow cytometry), MCF-7; type: cell-based, human; conditions: 72 h; 4m 1.0 mM, 4bt 0.8 mM, 4p 0.4 mM, 4bc 1.0 mM, 4x 0.8 mM
Procedure: (§1) For proliferation assays, cells were treated with IC50 concentrations of each compound. Adherent and floating cells were harvested at the same tube and pelleted by centrifugation at 300 g for 5 minutes and stained. Data acquisition of these two fractions put together was performed on a FACSCalibur flow cytometer using CellQuest software and analysed using the FloJo Software. Untreated control cells and DHPMs-treated for 72 h cell samples were stained with Annexin-V-FITC or Annexin-V-Alexa Fluor® 680 and propidium iodide according to the manufacturer’s instructions.

[5] = system: MDA-MB-231 cells; assay: MTT cell viability assay, MDA-MB-231; type: cell-based, human; conditions: for pIC50: 72 h treatment, MTT, read-out: IC50 MDA-MB-231; for Effect on cell viability, MDA-MB-231: all concentrations tested 100 μM – 1.00 mM, 72 h
Procedure: Absorbance readings were measured by a spectrophotometer. Cell viability was normalized to control (vehicle only).

[6] = system: MDA-MB-231 cells; assay: Apoptosis and necrosis assay (Annexin-V/PI flow cytometry), MDA-MB-231; type: cell-based, human; conditions: 72 h; 4m 1.0 mM, 4bt 0.8 mM, 4p 0.4 mM, 4bc 1.0 mM, 4x 0.8 mM
Procedure: as §1

| SMILES | CD44-/CD24- subpopulation, MDA-MB-231 (mean ± SEM) [1] [%] | CD44-/CD24+ subpopulation, MDA-MB-231 (mean ± SEM) [1] [%] | CD44+/CD24+ subpopulation, MDA-MB-231 (mean ± SEM) [1] [%] | CD44+/CD24- subpopulation, MDA-MB-231 (mean ± SEM) [1] [%] | Monoastral Spindle (%) 24 h [2] [%] | Bipolar Spindle (%) 24 h [2] [%] | Mitotic spindle / microtubule organization (α-tubulin immunostaining) [2] | Bipolar Spindle (%) 48 h [2] [%] | Monoastral Spindle (%) 48 h [2] [%] | Inhibition of kinesin Eg5 activity in vitro (in words) [3] | Cell death by apoptosis, % of MCF-7 cell population [4] | pIC50 [5] | Effect on cell viability, MDA-MB-231 [5] | Cell death by apoptosis, % of MDA-MB-231 cell population [6] |
| --- | --- | --- | --- | --- | --- | --- | --- | --- | --- | --- | --- | --- | --- | --- |
| CCOC(=O)C1=C(C)NC(=S)NC1c1ccccc1O (stereo not shown) [Compound 4p] | 0.02 ± 0.009 | 0.003 ± 0.003 | 5.507 ± 1.13 | 94.45 ± 1.13 | 0 | 0 | disruption of the microtubules | 0 | 0 | not statistically significant | less pronounced manner | 4.17 | significant decrease in cell viability | less pronounced manner |
| CC(=O)C1=C(C)NC(=O)NC1c1ccccc1[N+](=O)[O-] (stereo not shown) [Compound 4x] | 0.01 ± 0.003 | 0.020 ± 0.0200 | 6.08 ± 2.10 | 93.88 ± 2.12 | 50.80 | 49.20 | caused monoastral spindle formation | 12.01 | 87.99 | not statistically significant | less pronounced manner | 3.62 | significant decrease in cell viability | less pronounced manner |
